{"source": "patent US20090137517A1", "about": "“SENSITIZING A CELL TO CANCER TREATMENT BY MODULATING THE ACTIVITY OF A NUCLEIC ACID ENCODING RPS27L PROTEIN” (Agency for Science, Technology and Research, priority 2006, published 2009)", "type_in_all_cases": "cell-based, human", "key": {"HCT116 cells [1]": {"system": "HCT116 cells", "assay": "Alkaline single cell gel electrophoresis (comet) assay", "conditions": "RPS27L-depleted versus control HCT116 cells, ADR 24 h", "method": "In order to examine DNA damage directly, the comet assay was used next. […] Cells were incubated with ADR for 24 h and were harvested and processed for the comet assay.\nThe treated cells were subjected to a single cell gel electrophoresis (comet) assay as described earlier (Poonepalli, A., Balakrishnan, L., et al. (2005), supra) and stained with SYBR green dye. The tail moment of the comets was generated using the Metasystems (Germany) analysis software ‘Comet imager version 1.2’. Fifty randomly chosen comets were analyzed per sample. The extent of DNA damage observed was expressed as tail moment, which corresponded to the fraction of the DNA in the tail of the comet."}, "HCT116 cells [2]": {"system": "HCT116 cells", "assay": "JC-1 staining, mitochondrial membrane potential by flow cytometry", "conditions": "control HCT116 cells, ADR treatment", "description": "To further define the nature of this cell death response the inventors used another assay, namely flow cytometric detection of cells stained with JC-1. The JC-1-staining identifies cell death events as a result of loss of mitochondria membrane potential (ΔΨm).\n(§1) Cells cycle analysis was performed by DNA content quantification. The cells were fixed with 70% ethanol and stained with propidium iodide (50 μg/ml) staining. The stained cells were analyzed by FACScalibur (BD Bioscience). For the BrdU incorporation assay and mitochondrial membrane potential detection, the BrdU Flow Kit and JC-1 staining kit (both from BD Bioscience) were used, respectively, following the instruction manual. Stained cells were analyzed by FACScalibur (BD Bioscience) and quantified by using CellQuest software (BD Bioscience)."}, "RPS27L protein [3]": {"system": "RPS27L protein", "assay": "Western blot of RPS27L protein levels in HCT116 cells", "conditions": "ADR (1 μM), 5-FU (375 μM), nutlin-3 (10 μM)", "description": "(§2) To investigate whether the p53-induced increase in RPS27L mRNA also gives rise to the increased protein levels, immunoblot analysis of p53 wild-type and p53 null HCT116 cells treated with ADR, 5-FU or nutlin-3, a small molecule MDM2 antagonist that directly activates p53 (Vassilev, L. T., Vu, B. T., et al. (2004) “In vivo activation of the p53 pathway by small-molecule antagonists of MDM2” Science, vol. 303, p. 844-848) was performed. […] To extend this observations to other cell lines and to other p53 stimuli, U2OS (human osteosarcoma cell line) and SH-SY5Y (human neuroblastoma cell line) cells (p53 wild type) as well as Saos-2 cells (human osteosarcoma cell line, p53-deficient) were treated with ADR, etoposide phosphate (VP16®) and 5-FU (FIG. 2B). […] Obviously, 5-FU treatment activates a posttranslational mechanism that causes RPS27L protein downregulation in spite of the increased mRNA expression.\n(§3) Cells were harvested and lysed with RIPA buffer (50 mM Tris-HCl, pH7.4, 1 mM EDTA, 150 mM NaCl, 1% Nonidet P-40, 0.5% sodium deoxycholate and proteinase inhibitors). The lysates were clarified by centrifugation at 16,000×g for 15 minutes at 4° C. Protein concentrations were determined with the Bradford Protein Assay Kit (Bio-Rad). 20-50 μg protein samples were separated by SDS-PAGE, transferred onto an Immobilon membrane (Millipore) and blotted with antibodies. Anti-p53 and anti-p21 antibodies were from Santa Cruz; anti-MDM2 and anti-Puma antibodies were from Merck. The rabbit polyconal antibody to RPS27L was raised against a 14 amino acid peptide from human RPS27L (SEQ ID NO: 2: LHPSLEEEKKKHKK)."}, "HCT116 cells [4]": {"system": "HCT116 cells", "assay": "BrdU incorporation / 7-amino-actinomycin D FACS analysis", "conditions": "for cells with a hyperploid DNA content (>4.v): ADR 24 hours", "description": "Given the increased sensitivity to DNA damage upon RPS27L depletion, the inventors next investigated whether loss of RPS27L could impair the DNA damage checkpoint. […] However, parental cells underwent a dramatic decrease in DNA synthesis (from 85% to 11%) 24 hours after ADR treatment, whereas in HCT116 cells lacking RPS27L, this decrease in DNA synthesis was partially rescued (from 86% to 27%) (FIG. 5A).\nas §1"}, "[5]": {"system": "p53 and its downstream targets p21, puma and MDM2", "assay": "Immunoblot of p53 and its targets in control and RPS27L-depleted HCT116 cells", "conditions": "RPS27L-depleted versus control HCT116 cells", "description": "(§4) As RPS27L depletion sensitizes only p53 wild-type cells to DNA damage, the inventors next assessed the effect of RPS27L loss on p53 signaling pathway. The effects of RPS27L depletion on p53 and its downstream targets p21, puma and MDM2 was examined by immunoblot analysis. […] By contrast, p53-dependent activation of Puma and MDM2 were not decreased upon RPS27L loss.\nas §3"}, "p53 and p21": {"system": "p53 and p21", "assay": "Western blot of p53 and p21 protein levels in HCT116 cells", "conditions": "ADR (1 μM), 5-FU (375 μM), nutlin-3 (10 μM)", "description": "as §2, §3"}, "RPS27L protein [6]": {"system": "RPS27L protein", "assay": "Western blot of RPS27L protein in U2OS, SH-SY5Y and Saos-2 cells", "conditions": "U2OS and SH-SY5Y (p53 wild type), Saos-2 (p53-deficient); VP16 (10 μM), ADR (1 μM), 5-FU (375 μM)", "description": "as §2, §3"}, "HCT116 cells [7]": {"system": "HCT116 cells", "assay": "Cell cycle and apoptosis analysis by flow cytometry (sub-G1 DNA content)", "description": "as §1"}, "RPS27L mRNA": {"system": "RPS27L mRNA", "assay": "RT-PCR of RPS27L mRNA after drug treatment of HCT116 cells", "conditions": "p53 wild-type HCT116 cells; ADR (1 μM) or 5-FU (375 μM); not in p53 null cells", "description": "FIG. 1A depicts the microarray analysis showing a set of genes whose expression was induced by the DNA damaging agents adriamycin (ADR) and 5-fluorouracil (5-FU) in p53 wild-type HCT116 cells (human colorectal carcinoma cell line containing wild type p53) but not in the p53 null counterpart. In both treatments, RPS27L, together with bona fide p53 targets such as cdkn1a (encodes p21), Pmaid (encodes Noxa) and ccd3 (encodes Puma), was unregulated in a p53-dependent manner. To validate the microarray data, RT-PCR analysis was performed (FIG. 1B).\nThe human colon carcinoma cell line HCT116 and its p53 knock-out derivate cells were kindly provided by Dr. Bert Vogelstein. HCT116 cells can also be purchased under the ATCC number: CCL 247. The human osteosarcoma cell lines U2OS and Saos-2 can be purchased under the following ATCC numbers: U2OS, ATCC HTB-96; Saos-2, ATCC HTB-85 and SH-SY5Y, ATCC CRL-2266. Cells were grown in DMEM supplemented with 10% fetal bovine serum and penicillin-streptomycin (Invitrogen). Adriamycin, etoposide phosphate (VP16®) and 5-fluorouracil were purchased from Sigma-Aldrich.\nAll RT-PCR was performed using the Titanium One Step RT-PCR Kit (BD Clontech)."}, "p21": {"system": "p21", "assay": "Immunoblot of p21 in U2OS cells with transient RPS27L knockdown", "conditions": "RPS27L knocked down by transient transfection, ADR (1 μM) 24 hours", "description": "as §4, §3"}}, "data": [{"smiles": "COc1cccc2c1C(=O)c1c(O)c3c(c(O)c1C2=O)C[C@@](O)(C(=O)CO)C[C@@H]3O[C@H]1C[C@H](N)[C@H](O)[C@H](C)O1", "note": "[ADR, adriamycin]", "values": [{"measurement": "DNA damage (comet tail moment)", "setting": "HCT116 cells [1]", "result": "significantly enhanced"}, {"measurement": "percentage of cells with lower membrane potential (ΔΨm)", "setting": "HCT116 cells [2]", "result": 13.5, "unit": "%"}, {"measurement": "RPS27L protein level", "setting": "RPS27L protein [3]", "result": "increased RPS27L protein levels"}, {"measurement": "DNA synthesis (BrdU, cells in S-phase)", "setting": "HCT116 cells [4]; HCT116 cells lacking RPS27L, 24 hours after ADR treatment (86% before)", "result": 27, "unit": "%"}, {"measurement": "cells with a hyperploid DNA content (>4.v)", "setting": "HCT116 cells [4]; RPS27L-depleted HCT116 cells", "result": 30, "unit": "%"}, {"measurement": "cells with a hyperploid DNA content (>4.v)", "setting": "HCT116 cells [4]; control HCT116 cells", "result": 10.5, "unit": "%"}, {"measurement": "hyperploid population", "setting": "HCT116 cells [4]; p21-depleted HCT116 cells after ADR treatment", "result": "no increased hyperploid population"}, {"measurement": "DNA synthesis (BrdU, cells in S-phase)", "setting": "HCT116 cells [4]; parental (control) HCT116 cells, 24 hours after ADR treatment (85% before)", "result": 11, "unit": "%"}, {"measurement": "p53-dependent activation of Puma and MDM2", "setting": "[5]; ADR (1 μM)", "result": "not decreased"}, {"measurement": "effect of RPS27L depletion on ADR-induced p53 activation", "setting": "[5]; ADR (1 μM) 24 and 48 hours", "result": "no significant effect"}, {"measurement": "p21 accumulation in response to ADR", "setting": "[5]; ADR (1 μM) 24 and 48 hours", "result": "significant reduced"}, {"measurement": "p53 and p21 protein", "setting": "p53 and p21", "result": "accumulation of p53 and p21"}, {"measurement": "RPS27L protein level", "setting": "RPS27L protein [6]", "result": "p53-dependent upregulation of RPS27L protein"}, {"measurement": "cell cycle and apoptosis response", "setting": "HCT116 cells [7]; HCT116 p53+/+ and p53−/−, ADR (1 μM) or 5-FU (375 μM) for 48 h", "result": "p53-dependent cell cycle arrest"}, {"measurement": "cell death (sub-G1 DNA content)", "setting": "HCT116 cells [7]; RPS27L depletion in p53 null HCT116 cells, ADR 48 h", "result": "did not give rise to the same result"}, {"measurement": "cellular response", "setting": "HCT116 cells [7]; p53 wild-type HCT116 expressing control shRNA, ADR 48 h", "result": "growth arrest response"}, {"measurement": "RPS27L mRNA", "setting": "RPS27L mRNA", "result": "induced"}, {"measurement": "p21 protein level", "setting": "p21", "result": "substantial decrease"}]}]}
